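Following 48 hours of exposure in 96-well plates, responses at five concentrations were used to interpolate endpoints linearly. GI50 marks 50% less growth.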 Activity calls are given as the source filed them. No stated cut-off is given here; in the data, active = GI50 up to about 1.1 µM and inactive = higher.
Assays:
Test in all cases: NCI tumour cell line growth inhibition, 48 h
UO-31 = tested on: UO-31
HCC 2998 = tested on: HCC 2998
MDA-MB-435 = tested on: MDA-MB-435
SW-620 = tested on: SW-620
RPMI-8226 = tested on: RPMI-8226
786-0 = tested on: 786-0
UACC-62 = tested on: UACC-62
MOLT-4 = tested on: MOLT-4
SF-295 = tested on: SF-295
UACC-257 = tested on: UACC-257
DU-145 = tested on: DU-145
HOP-62 = tested on: HOP-62
PC-3 = tested on: PC-3
MCF7 = tested on: MCF7
HT-29 = tested on: HT-29
KM12 = tested on: KM12
CCRF-CEM = tested on: CCRF-CEM
SK-OV-3 = tested on: SK-OV-3
TK-10 = tested on: TK-10

Measured: GI50

COc1ccc(/C=C/C(=O)CC(=O)/C=C/c2ccc(OC)cc2)cc1
inactive: UO-31 34.8 µM | HCC 2998 > 100 µM | MDA-MB-435 38.6 µM | SW-620 52.5 µM | RPMI-8226 38.1 µM | 786-0 30.8 µM | UACC-62 54.2 µM | MOLT-4 28 µM | SF-295 27.9 µM | UACC-257 > 100 µM | DU-145 74.5 µM | HOP-62 > 100 µM | PC-3 19.9 µM | MCF7 64.9 µM | HT-29 23.1 µM | KM12 > 100 µM | CCRF-CEM 20.9 µM | SK-OV-3 > 100 µM

CC(C)[C@H](NC(=O)OCc1ccccc1)C(=O)N[C@H](/C=C/C(=O)OC(C)(C)C)CO
inactive: HCC 2998 > 100 µM | MDA-MB-435 > 100 µM | SW-620 92.9 µM | 786-0 65.6 µM | UACC-62 > 100 µM | TK-10 > 100 µM | MOLT-4 > 100 µM | SF-295 > 100 µM | UACC-257 > 100 µM | DU-145 > 100 µM | HOP-62 > 100 µM | PC-3 68.1 µM | MCF7 > 100 µM | HT-29 > 100 µM | KM12 > 100 µM | CCRF-CEM 28.1 µM | SK-OV-3 > 100 µM

CC(=O)N1C/C(=C\c2ccc(N(C)C)cc2)C(=O)/C(=C/c2ccc(N(C)C)cc2)C1
inactive: UO-31 > 100 µM | HCC 2998 58.2 µM | SW-620 41.5 µM | RPMI-8226 > 100 µM | 786-0 39.4 µM | UACC-62 30.1 µM | TK-10 75.7 µM | MOLT-4 51.4 µM | SF-295 52.6 µM | UACC-257 47.4 µM | HOP-62 > 100 µM | HT-29 36.6 µM | KM12 35.7 µM | CCRF-CEM 46.9 µM | SK-OV-3 55.7 µM

NC(=S)N/N=C(\C(=O)Nc1cccc([N+](=O)[O-])c1)c1nc2ccc([N+](=O)[O-])cc2nc1O
inactive: UO-31 > 100 µM | HCC 2998 21.9 µM | SW-620 > 100 µM | RPMI-8226 > 100 µM | 786-0 > 100 µM | UACC-62 51.4 µM | TK-10 > 100 µM | MOLT-4 18.2 µM | SF-295 > 100 µM | UACC-257 7.8 µM | HOP-62 56.8 µM | HT-29 > 100 µM | KM12 40.6 µM | CCRF-CEM 34.8 µM | SK-OV-3 > 100 µM

COc1cc(C2C(C(=O)Nc3ccc([N+](=O)[O-])cc3)=C(C)NC(C)=C2C(=O)Nc2ccc([N+](=O)[O-])cc2)ccc1O
inactive: UO-31 19.1 µM | HCC 2998 18.4 µM | SW-620 21.6 µM | RPMI-8226 24.3 µM | 786-0 29.1 µM | UACC-62 16.7 µM | TK-10 18.2 µM | MOLT-4 19.9 µM | SF-295 24.7 µM | UACC-257 24.2 µM | HOP-62 18.4 µM | HT-29 19.4 µM | KM12 18.7 µM | CCRF-CEM 30.3 µM | SK-OV-3 27.9 µM

O=C(O)/C=C/C(=O)O [FUMARIC ACID]
inactive: UO-31 > 100 µM | HCC 2998 > 100 µM | MDA-MB-435 > 100 µM | SW-620 > 100 µM | RPMI-8226 > 100 µM | 786-0 > 100 µM | TK-10 > 100 µM | MOLT-4 > 100 µM | SF-295 > 100 µM | UACC-257 > 100 µM | DU-145 > 100 µM | HOP-62 > 100 µM | PC-3 > 100 µM | MCF7 > 100 µM | HT-29 > 100 µM | KM12 > 100 µM | CCRF-CEM > 100 µM

O=C(Nc1nc2ncn(CCOC(=O)c3ccccc3)c2c(=O)[nH]1)c1ccccc1
inactive: UO-31 51.9 µM | HCC 2998 97.9 µM | MDA-MB-435 2.48 µM | SW-620 4.98 µM | RPMI-8226 6.1 µM | 786-0 15.8 µM | UACC-62 9.12 µM | TK-10 > 100 µM | MOLT-4 6.64 µM | SF-295 12.9 µM | UACC-257 > 95.7 µM | DU-145 31.8 µM | HOP-62 20.4 µM | PC-3 47.2 µM | MCF7 4.4 µM | HT-29 3.68 µM | KM12 3.34 µM | CCRF-CEM 9.71 µM | SK-OV-3 > 50.7 µM

Cc1ns/c(=N\C(=S)N(C)C)n1C
inactive: UO-31 > 100 µM | HCC 2998 > 100 µM | SW-620 > 100 µM | RPMI-8226 > 100 µM | 786-0 > 100 µM | UACC-62 > 100 µM | TK-10 > 100 µM | MOLT-4 > 100 µM | SF-295 > 100 µM | UACC-257 > 100 µM | HOP-62 > 100 µM | HT-29 > 100 µM | KM12 > 100 µM | CCRF-CEM > 100 µM | SK-OV-3 > 100 µM

Cc1ccc(S(=O)(=O)n2c3ccc(Br)cc3c3nc4ccccc4nc32)cc1
inactive: UO-31 > 100 µM | HCC 2998 > 100 µM | MDA-MB-435 > 100 µM | SW-620 > 100 µM | RPMI-8226 > 100 µM | 786-0 > 100 µM | UACC-62 > 100 µM | TK-10 > 100 µM | MOLT-4 > 100 µM | SF-295 > 100 µM | UACC-257 > 100 µM | DU-145 > 100 µM | HOP-62 > 100 µM | PC-3 > 100 µM | HT-29 > 100 µM | KM12 > 100 µM | CCRF-CEM > 100 µM

Cn1ncc2c(c1=O)Nc1ccccc1S2(=O)=O
inactive: UO-31 > 100 µM | HCC 2998 > 100 µM | SW-620 10.8 µM | RPMI-8226 53.8 µM | 786-0 28.4 µM | UACC-62 > 100 µM | TK-10 > 100 µM | MOLT-4 > 100 µM | SF-295 > 100 µM | UACC-257 > 100 µM | HOP-62 > 100 µM | HT-29 > 100 µM | KM12 > 100 µM | CCRF-CEM 61.1 µM | SK-OV-3 > 100 µM

CCc1cccc(CC)c1Nc1nc2c(s1)C(=O)c1ccccc1C2=O
inactive: UO-31 15.4 µM | HCC 2998 18.7 µM | MDA-MB-435 17.5 µM | SW-620 26.1 µM | RPMI-8226 24.7 µM | 786-0 20.9 µM | UACC-62 17.2 µM | TK-10 21.2 µM | MOLT-4 23.2 µM | SF-295 13.7 µM | UACC-257 19.5 µM | DU-145 21.6 µM | HOP-62 16 µM | PC-3 13.3 µM | MCF7 22.4 µM | KM12 18.1 µM | CCRF-CEM 38.9 µM | SK-OV-3 27.3 µM

Cc1ccc(C)c(N2C(=O)C(=O)C(c3nc4ccccc4s3)C(=O)C2=O)c1
inactive: UO-31 > 100 µM | HCC 2998 > 100 µM | SW-620 > 100 µM | RPMI-8226 > 100 µM | 786-0 > 100 µM | UACC-62 > 100 µM | TK-10 > 100 µM | MOLT-4 > 100 µM | SF-295 > 100 µM | UACC-257 > 100 µM | HOP-62 > 100 µM | HT-29 > 100 µM | KM12 > 100 µM | CCRF-CEM > 100 µM | SK-OV-3 > 100 µM

COc1ccc([C@@H]2OC(=O)C3C2C(=O)O[C@H]3c2ccc(OC)c(OC)c2)cc1OC (some centres undefined)
inactive: UO-31 > 100 µM | HCC 2998 > 100 µM | SW-620 > 100 µM | RPMI-8226 > 100 µM | 786-0 > 100 µM | UACC-62 > 100 µM | TK-10 > 100 µM | MOLT-4 > 100 µM | SF-295 > 100 µM | UACC-257 > 100 µM | HOP-62 > 100 µM | HT-29 > 100 µM | KM12 > 100 µM | CCRF-CEM > 100 µM | SK-OV-3 > 100 µM

CC(=O)OCC1OC(n2c(C)c(C(C)=O)c(-c3ccc(Cl)cc3)c(C#N)c2=S)C(OC(C)=O)C(OC(C)=O)C1OC(C)=O (centres undefined)
inactive: UO-31 > 100 µM | HCC 2998 > 100 µM | MDA-MB-435 > 100 µM | SW-620 > 100 µM | 786-0 > 100 µM | UACC-62 > 100 µM | TK-10 > 100 µM | MOLT-4 > 100 µM | SF-295 > 100 µM | UACC-257 > 100 µM | DU-145 > 100 µM | HOP-62 > 100 µM | PC-3 > 100 µM | MCF7 > 100 µM | HT-29 > 100 µM | KM12 > 100 µM | CCRF-CEM > 100 µM | SK-OV-3 > 100 µM

Brc1ccc(/C=N/C23CC4CC(CC(C4)C2)C3)cc1
inactive: UO-31 > 100 µM | HCC 2998 > 100 µM | SW-620 > 100 µM | RPMI-8226 > 100 µM | 786-0 > 100 µM | UACC-62 > 100 µM | TK-10 > 100 µM | MOLT-4 > 100 µM | SF-295 > 100 µM | UACC-257 > 100 µM | HOP-62 > 100 µM | HT-29 > 100 µM | KM12 > 100 µM | CCRF-CEM > 100 µM | SK-OV-3 > 100 µM

COc1ccc(CC(=O)c2cc(OC)c(OC)cc2C)cc1OC
inactive: UO-31 18.2 µM | HCC 2998 > 100 µM | SW-620 > 100 µM | RPMI-8226 65.3 µM | 786-0 > 100 µM | UACC-62 38 µM | TK-10 > 100 µM | MOLT-4 44.8 µM | SF-295 57.4 µM | UACC-257 21.3 µM | HOP-62 > 100 µM | HT-29 > 100 µM | KM12 > 100 µM | CCRF-CEM > 100 µM | SK-OV-3 > 100 µM
